The subject of data set [1] is LU-01-0046 non-small-cell lung carcinoma (NSCLC) PDX model. Put plainly: Efficacy in LU-01-0046 NSCLC PDX model (high MT1-expressing, docetaxel resistant). The format is in vivo, Balb/C nude mice. From the text:
The objective of the project is to evaluate the in vivo therapeutic efficacy of test articles in the LU-01-0046 non-small-cell lung carcinoma (NSCLC) PDX model. LU-01-0046 is a high MT1-expressing NSCLC that is docetaxel resistant.
Each mouse was inoculated subcutaneously at the right flank with certain kind of tumor fragment (30 mm3) for tumor development. The treatments started when the average tumor volume reaches approximately 150-200 mm^3. The test article administration and the animal numbers in each group are shown in Table 40 which details the experimental design.
Treatment was given until the control tumors reached an average of 1000 mm^3.
Before commencement of treatment all animals will be weighed and the tumor volumes will be measured. Since the tumor volume can affect the effectiveness of any given treatment, mice will be assigned into groups using randomized block design based upon their tumor volumes.
The protocol and any amendment(s) or procedures involving the care and use of animals in this study will be reviewed and approved prior to conduct. […] At the time of routine monitoring, the animals will be checked for any effects of tumor growth and treatments on normal behavior such as mobility, food and water consumption, body weight gain/loss (body weights will be measured twice weekly), eye/hair matting and any other abnormal effect. Death and observed clinical signs will be recorded on the basis of the numbers of animals within each subset.
The major endpoint is to see if the tumor growth can be delayed or mice can be cured. Tumor sizes will be measured twice weekly in two dimensions using a caliper and the volume will be expressed in mm^3 using the formula: V=0.5 a×b^2 where a and b are the long and short diameters of the tumor, respectively. […] T-C is calculated with T as the median time (in days) required for the treatment group tumors to reach a predetermined size (e.g., 1.000 mm^3), and C is the median time (in days) for the control group tumors to reach the same size. […]
TGI is calculated for each group using the formula. […]

A further data set deals with HT1080 cell line. The data set can be described thus: In vitro cytotoxicity, ATP endpoint assay after 72 hours incubation. The format is cell-based. Conditions: HT-1080 cells. Here is the method: To evaluate the in vitro cytotoxicity of BT1718 and BT1721 in an HT1080 cell line using an ATP endpoint assay after 72 hours incubation.
Cells were seeded in 96 well plates (75 μl/well, HT1080=7500−15000 cell/well) and incubated overnight at 37° C.+5% CO2.
The day after cell seeding, serial dilutions (1:5) of BT1718 and BT1721 were prepared in DMSO and diluted 1:71 in cell culture media to give 4× final concentrations. Twenty five μl/well was added to the cells (2 μM or 5 μM top final concentration of BT1718 and 2 μM or 5 μM top final concentration of BT1721, <0.6% final DMSO).
Cells were 30-50% confluent upon dosing. Control wells containing 5 μM final concentration of staurosporine (positive control), lysis buffer (1% NP40, 20 mM Tris pH8, 137 mM NaCl, 10% glycerol, 2 mM EDTA, 1 mM Na Orthovanadate, 10 μg/ml leupeptin, 10 μg/ml aprotinin) positive control or media (negative control), were also included. Plates were sealed with gas permeable seals and incubated at 37° C.+5% CO2 for 72 hours. No wash steps were performed.
After a total of 72 hours after dosing, ATPLite reagent (Perkin Elmer) was equilibrated to room temperate and reconstituted in the supplied buffer as per the manufacturer's instructions. One hundred μl 1× detection reagent was added per well. Plates were sealed, protected from light and shaken gently for 20 minutes to ensure complete cell lysis before luminescence was read using a BMG Pherastar FS plate reader. […] Data was analysed using GraphPad Prism. Non-linear regression fit was used to calculate a relative IC50 for each toxic agent: Y=Bottom+(Top−Bottom)/(1+10^((Log Ic50−X)*HillSlope)) where the IC50 is defined as 50% of the total cell kill achieved at the top concentration of toxin.

*1 amine or outer side, *2 acyl side, *3 side chain or, on linkers, in order; H or OH if unused. Where a SMILES comes first, the peptide text is derived from it. Bridges are numbered along the chain shown (N, C = ends). [ ]: non-standard residue; d: D form. The star is where a group is joined. X1 = COc1cc2cc(c1Cl)N(C)C(=O)C[C@H](OC(=O)[C@H](C)N(C)C(=O)CCSSC(C)CCC(=O)*)[C@]1(C)O[C@H]1[C@H](C)[C@@H]1C[C@@](O)(NC(=O)O1)[C@H](OC)/C=C/C=C(\C)C2; 1Nal = N[C@@H](Cc1cccc2ccccc12)C(=O)O; TBMB = c1c(C[*:1])cc(C[*:3])cc1C[*:2]; Tle = CC(C)(C)[C@H](N)C(=O)O; βAla = NCCC(=O)O; Sar = CNCC(=O)O

As to `COc1cc2cc(c1Cl)N(C)C(=O)C[C@H](OC(=O)[C@H](C)N(C)C(=O)CCSSC(C)CCC(=O)NCCC(=O)N(C)CC(=O)N(C)CC(=O)N(C)CC(=O)N(C)CC(=O)N(C)CC(=O)N(C)CC(=O)N(C)CC(=O)N(C)CC(=O)N(C)CC(=O)N(C)CC(=O)N[C@@H](C)C(=O)N[C@H]1CSCc3cc4cc(c3)CSC[C@H](NC(=O)[C@@H](C)NC(=O)[C@H](Cc3cccc5ccccc35)NC(=O)[C@H](CCC(=O)O)NC(=O)[C@H](CC(N)=O)NC(=O)[C@@H](C)NC1=O)C(=O)N[C@@H](CCC(=O)O)C(=O)N[C@@H](CC(=O)O)C(=O)N[C@@H](Cc1ccccc1)C(=O)N[C@@H](Cc1ccc(O)cc1)C(=O)N[C@@H](CC(=O)O)C(=O)N[C@@H](C(C)(C)C)C(=O)N[C@H](C(N)=O)CSC4)[C@]1(C)O[C@H]1[C@H](C)[C@@H]1C[C@@](O)(NC(=O)O1)[C@H](OC)/C=C/C=C(\C)C2` (some centres unmarked) [BT1718] ({X1-βAla}-[Sar][Sar][Sar][Sar][Sar][Sar][Sar][Sar][Sar][Sar]AC[dA]NE[1Nal][dA]CEDFYD[Tle]C-NH2; linker 12-18-25 via TBMB (inferred)), in data set [1] (3 mg/kg biw), the tumor response entry is listed as “tumor stasis”. Moreover, in data set [1] (10 mg/kg biw), the “relapse after cessation of dosing” value was “lack of relapse” and the tumor response result was “tumor eradication”. The IC50 with HT1080 cell line (ATP endpoint) stood at 1 nM. In addition, the “relative cytotoxic activity versus BT1721” value with HT1080 cell line is recorded as “approximately ten-fold more active”.

The record behind these values is patent US10441663B2, “Methods for treating cancer” (Bicycle Therapeutics Limited, priority 2016, dated 2019).
